From ChEMBL document CHEMBL5291721, “A preclinical secondary pharmacology resource illuminates target-adverse drug reaction associations of marketed drugs” (Nat Commun, 2023)
Blank lines part the entries; values can stand above or below the compound they belong to.

Assays:
[1] = biological target: T1, Type-1 angiotensin II receptor (Homo sapiens, UniProt P30556)
T1 sequence (P30556 whole entry): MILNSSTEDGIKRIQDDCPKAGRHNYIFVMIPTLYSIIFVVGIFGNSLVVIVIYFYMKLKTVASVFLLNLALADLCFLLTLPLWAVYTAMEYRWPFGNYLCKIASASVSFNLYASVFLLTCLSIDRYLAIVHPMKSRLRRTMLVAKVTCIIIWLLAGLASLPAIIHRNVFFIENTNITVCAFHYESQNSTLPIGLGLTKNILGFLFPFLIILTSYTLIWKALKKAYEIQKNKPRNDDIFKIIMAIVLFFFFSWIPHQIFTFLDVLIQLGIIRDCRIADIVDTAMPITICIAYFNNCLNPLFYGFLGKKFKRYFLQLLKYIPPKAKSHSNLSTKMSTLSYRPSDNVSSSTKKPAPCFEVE

[2] = biological target: Type-2 angiotensin II receptor (Homo sapiens, UniProt P50052); assay type: functional
[3] = biological target: T2, Retinoic acid receptor beta (Homo sapiens, UniProt P10826); assay type: functional, cell-based
T2 sequence (P10826 whole entry): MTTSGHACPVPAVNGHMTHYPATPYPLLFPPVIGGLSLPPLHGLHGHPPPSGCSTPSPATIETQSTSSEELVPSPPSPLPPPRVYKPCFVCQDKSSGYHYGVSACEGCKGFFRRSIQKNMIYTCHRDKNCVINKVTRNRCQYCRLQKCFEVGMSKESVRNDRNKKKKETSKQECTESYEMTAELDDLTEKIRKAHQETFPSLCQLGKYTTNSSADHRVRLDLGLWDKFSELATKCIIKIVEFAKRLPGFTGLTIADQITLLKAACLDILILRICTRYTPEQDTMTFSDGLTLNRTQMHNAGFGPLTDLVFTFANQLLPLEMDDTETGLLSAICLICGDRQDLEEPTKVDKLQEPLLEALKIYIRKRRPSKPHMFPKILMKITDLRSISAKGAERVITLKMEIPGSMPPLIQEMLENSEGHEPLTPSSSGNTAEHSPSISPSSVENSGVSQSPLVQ

Bile acid receptor [4] = biological target: T3, Bile acid receptor (Homo sapiens, UniProt Q96RI1); assay type: functional
T3 sequence (Q96RI1 whole entry): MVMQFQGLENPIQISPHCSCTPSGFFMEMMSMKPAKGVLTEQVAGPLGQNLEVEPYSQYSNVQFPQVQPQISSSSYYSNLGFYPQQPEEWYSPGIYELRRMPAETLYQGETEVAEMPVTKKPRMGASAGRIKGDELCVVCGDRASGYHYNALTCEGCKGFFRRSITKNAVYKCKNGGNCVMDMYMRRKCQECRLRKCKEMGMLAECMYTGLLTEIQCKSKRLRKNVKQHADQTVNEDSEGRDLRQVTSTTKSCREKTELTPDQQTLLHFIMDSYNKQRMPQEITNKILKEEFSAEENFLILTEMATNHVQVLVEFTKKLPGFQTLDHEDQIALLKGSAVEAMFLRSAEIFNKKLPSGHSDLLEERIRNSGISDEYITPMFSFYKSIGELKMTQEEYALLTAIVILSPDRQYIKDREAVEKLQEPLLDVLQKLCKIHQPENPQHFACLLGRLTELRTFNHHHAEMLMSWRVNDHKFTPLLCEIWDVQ

Bile acid receptor [5] = biological target: T3, Bile acid receptor; assay type: functional; remark: listed apart in the source
[6] = biological target: T4, Retinoic acid receptor alpha (Homo sapiens, UniProt P10276); assay type: functional, cell-based
T4 sequence (P10276 whole entry): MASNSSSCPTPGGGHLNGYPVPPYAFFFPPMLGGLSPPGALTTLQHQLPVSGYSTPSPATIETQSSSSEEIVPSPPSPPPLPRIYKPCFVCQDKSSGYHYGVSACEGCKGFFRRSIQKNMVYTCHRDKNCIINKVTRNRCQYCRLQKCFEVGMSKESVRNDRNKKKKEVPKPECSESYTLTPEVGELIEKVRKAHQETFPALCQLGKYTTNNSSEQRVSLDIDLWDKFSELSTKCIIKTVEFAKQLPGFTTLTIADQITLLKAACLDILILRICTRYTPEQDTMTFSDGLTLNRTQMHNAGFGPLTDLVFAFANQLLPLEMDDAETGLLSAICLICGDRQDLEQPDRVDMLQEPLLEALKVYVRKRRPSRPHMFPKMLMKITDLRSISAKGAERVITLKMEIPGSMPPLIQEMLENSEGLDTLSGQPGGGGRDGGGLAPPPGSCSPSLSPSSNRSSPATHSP

[7] = biological target: T5, Oxysterols receptor LXR-alpha (Homo sapiens, UniProt Q13133); assay type: functional
T5 sequence (Q13133 whole entry): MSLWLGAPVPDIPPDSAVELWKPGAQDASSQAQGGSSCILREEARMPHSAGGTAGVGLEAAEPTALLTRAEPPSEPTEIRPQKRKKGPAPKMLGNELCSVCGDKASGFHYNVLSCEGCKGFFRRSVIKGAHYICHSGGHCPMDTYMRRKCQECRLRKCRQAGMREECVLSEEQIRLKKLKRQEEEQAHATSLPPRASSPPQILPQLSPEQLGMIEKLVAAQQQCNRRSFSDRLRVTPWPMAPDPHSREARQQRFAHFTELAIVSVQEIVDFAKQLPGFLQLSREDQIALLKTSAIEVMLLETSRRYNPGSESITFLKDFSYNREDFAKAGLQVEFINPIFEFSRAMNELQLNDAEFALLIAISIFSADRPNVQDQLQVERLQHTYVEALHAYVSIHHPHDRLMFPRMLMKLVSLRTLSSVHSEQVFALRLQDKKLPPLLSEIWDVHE

Bile acid receptor [8] = biological target: T3, Bile acid receptor; assay type: functional; remark: listed apart in the source
[9] = biological target: T6, Muscarinic acetylcholine receptor M1 (Homo sapiens, UniProt P11229)
T6 sequence (P11229 whole entry): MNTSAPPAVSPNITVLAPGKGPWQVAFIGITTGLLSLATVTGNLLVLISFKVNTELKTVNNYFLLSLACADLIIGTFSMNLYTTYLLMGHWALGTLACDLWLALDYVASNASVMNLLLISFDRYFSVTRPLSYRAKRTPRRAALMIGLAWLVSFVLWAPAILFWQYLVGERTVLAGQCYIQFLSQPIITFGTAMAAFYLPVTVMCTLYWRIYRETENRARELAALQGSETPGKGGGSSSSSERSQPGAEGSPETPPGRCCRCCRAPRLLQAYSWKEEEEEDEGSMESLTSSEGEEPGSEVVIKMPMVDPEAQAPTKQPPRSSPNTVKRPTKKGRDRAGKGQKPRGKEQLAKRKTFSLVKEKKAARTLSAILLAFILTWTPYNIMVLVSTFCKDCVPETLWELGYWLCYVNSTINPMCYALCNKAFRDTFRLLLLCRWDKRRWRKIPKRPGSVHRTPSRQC
Further: assay procedure not described here.

Chain of Type-2 angiotensin II receptor (P50052 whole entry): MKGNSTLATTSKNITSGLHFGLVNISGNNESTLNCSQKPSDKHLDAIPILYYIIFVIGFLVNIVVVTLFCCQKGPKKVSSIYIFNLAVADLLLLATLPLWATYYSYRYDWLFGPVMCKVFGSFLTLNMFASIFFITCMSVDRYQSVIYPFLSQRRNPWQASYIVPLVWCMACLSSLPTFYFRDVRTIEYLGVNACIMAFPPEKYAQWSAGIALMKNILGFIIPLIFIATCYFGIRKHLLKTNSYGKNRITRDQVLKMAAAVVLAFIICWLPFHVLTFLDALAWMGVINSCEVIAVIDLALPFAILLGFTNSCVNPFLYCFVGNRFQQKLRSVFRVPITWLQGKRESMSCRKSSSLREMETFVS

AC50 [1]: > 100 µM
SMILES: CN1CCCC(n2nc(Cc3ccc(Cl)cc3)c3ccccc3c2=O)CC1 (centres undefined) [AZELASTINE]

AC50 [2]: > 100 µM
SMILES: CC(C)NCC(O)COc1ccc(COCCOC(C)C)cc1 (centres undefined) [BISOPROLOL]

AC50 [3]: 24 µM | AC50 (Bile acid receptor [4]): > 30 µM | AC50 (Bile acid receptor [5]): > 30 µM | AC50 [6]: 22 µM | AC50 [7]: 6.3 µM | AC50 (Bile acid receptor [8]): > 10 µM
SMILES: COc1ccc2c(c1)C(=O)N(CCc1ccc(S(=O)(=O)NC(=O)NC3CCCCC3)cc1)C(=O)C2(C)C [GLIQUIDONE]

SMILES: Cc1cc2c(cc1CC(=O)c1sccc1S(=O)(=O)Nc1onc(C)c1Cl)OCO2 [SITAXENTAN]
AC50 [9]: > 30 µM
